Assay results from patent US20220280590A1, “USE OF INHIBITORS OF YAP AND SOX2 FOR THE TREATMENT OF CANCER” (Georgetown University, priority 2019, published 2022).

Columns and labels:
[1] = tested on: SOX2, SOX5, and TWIST2 in primary PDAC cell lines; test: Western blot of pluripotent transcription factors in primary PDAC lines; assay type: cell-based; conditions: after 24 hours, compared to DMSO control
Description: Western blot assay with indicated antibodies in four different primary PDAC lines expressing variable levels of SOX2/SOX5/TWIST2 after 24 hr treatment with DMSO (−) or Miv (+) is shown. Multiple primary PDAC cell lines were treated with BET inhibitor mivebresib.

[2] = tested on: mT4, 08031-9, MD-MB-231, 786-O and HepG2 cells; test: FACS analysis of relative ratios of control (RFP-) and YAP/TAZ-depleted (shY/T, RFP+) cancer cells in co-culture; assay type: cell-based; conditions: compared to vehicle, pancreatic, schwannoma, breast, kidney and liver cancer lines
Description: FACS analysis of the relative ratios of control (Ctrl, RFP-) or YAP/TAZ-depleted (shY/T, RFP^+) cancer cells after co-culturing in the presence of vehicle (Veh) or BE inhibitor mivebresib (Miv) was performed (n=3). […] The YAP/TAZ hairpin RNAs were fused with fluorescent protein RFP. […] (FIG. 8).

[3] = tested on: primary KYYF pancreatic tumor cells; test: Relative mRNA levels of lineage genes and SOX2 in KYYF pancreatic tumor cells; assay type: cell-based, mouse; conditions: YAP+ primary pancreatic tumor cells, 0.5, 2, 5 μM for 3 days versus DMSO
Source text: (§1) (*P<0.05; **P<0.005; ***P<0.0005; ns: not significant; error bars indicate standard deviation).
(§2) Quantitative methylation-specific PCR (qMSP) was used to confirm that the promoters of acinar lineage genes Ptf1a and Bhlha15 became heavily methylated in KF pancreatic tumors in contrast to wild type (WT) pancreata, which was partially reversed in KYYF pancreata after TAM treatment (FIG. 5L). To directly assess the effects of DNA de-methylation on the expression of pancreatic lineage genes, YAP^+ primary pancreatic tumor cells were treated with vehicle control or DNA methylation inhibitor 5-azacytidine (5-Aza). […] The levels of global DNA methylation in primary KYYF pancreatic tumor cells were measured following treatment with Ad-GFP or Ad-CRE, and it was confirmed that YAP ablation induced a rapid and significant decline in global DNA methylation, which partially recovered over time (FIG. 5B).

[4] = tested on: primary KYYF pancreatic tumor cells; test: Percent of global DNA methylation in KYYF cells; assay type: cell-based, mouse; conditions: 5 μM, 3 days versus DMSO
Source text: as §1, §2

CCS(=O)(=O)Nc1ccc(Oc2ccc(F)cc2F)c(-c2cn(C)c(=O)c3[nH]ccc23)c1 [mivebresib]
expression of pluripotent transcription factors SOX2, SOX5, and TWIST2 [1]: selectively reduced | percentage of control (RFP-) relative to shY/T (RFP+) cancer cells [2]: greater percentage of control (RFP^−) cancer cells relative to shY/T (RFP^+) cancer cells

Nc1ncn([C@@H]2O[C@H](CO)[C@@H](O)[C@H]2O)c(=O)n1 [5-Aza, 5-azacytidine]
expression of acinar and endocrine lineage genes and SOX2 [3]: dose-dependent upregulation | global DNA methylation [4]: global DNA de-methylation
